Laboratory results from the supplement of paper PMC10307832.

Experiments:
Assay in all cases: relative viability (nuclei count vs DMSO), 5 days (fraction); higher = more cells survive
[1] = compound: O=C(C[C@H]1NCCC[C@@H]1O)Cn1cnc2cc(Br)c(Cl)cc2c1=O (racemic) [Halofuginone] + Cc1cc(Nc2cc(N3CCN(C)CC3)nc(Sc3ccc(NC(=O)C4CC4)cc3)n2)n[nH]1 [Tozasertib] (partner 0.1 µM)
How it was run: (§1)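 Lung cancer cell lines in 1536-well plates got either a single drug or a fixed anchor-drug dose together with five library-drug doses (not always all listed) in √10 steps, by pin tool, on the day after seeding. Nuclei were counted after 5 days, and relative viability is the treated-to-vehicle ratio of nuclei counts. Values are medians of duplicate plates.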

Halofuginone + Alpelisib = compound: O=C(C[C@H]1NCCC[C@@H]1O)Cn1cnc2cc(Br)c(Cl)cc2c1=O (racemic) [Halofuginone] + Cc1nc(NC(=O)N2CCC[C@H]2C(N)=O)sc1-c1ccnc(C(C)(C)C(F)(F)F)c1 [Alpelisib] (partner 2 µM)
How it was run: as §1

[2] = compound: O=C(C[C@H]1NCCC[C@@H]1O)Cn1cnc2cc(Br)c(Cl)cc2c1=O (racemic) [Halofuginone] + CC(=O)c1c(C)c2cnc(Nc3ccc(N4CCNCC4)cn3)nc2n(C2CCCC2)c1=O [Palbociclib] (partner 0.5 µM)
How it was run: as §1

Cediranib + Vorinostat = compound: COc1cc2c(Oc3ccc4[nH]c(C)cc4c3F)ncnc2cc1OCCCN1CCCC1 [Cediranib] + O=C(CCCCCCC(=O)Nc1ccccc1)NO [Vorinostat] (partner 1 µM)
How it was run: as §1

Cell Line	relative viability ([1]; first compound 0.001 µM)	relative viability ([1]; first compound 0.003162 µM)	relative viability ([1]; first compound 0.01 µM)	relative viability ([1]; first compound 0.03162 µM)	relative viability ([1]; first compound 0.1 µM)	relative viability (Halofuginone + Alpelisib; first compound 0.001 µM)	relative viability (Halofuginone + Alpelisib; first compound 0.003162 µM)	relative viability (Halofuginone + Alpelisib; first compound 0.01 µM)	relative viability (Halofuginone + Alpelisib; first compound 0.03162 µM)	relative viability (Halofuginone + Alpelisib; first compound 0.1 µM)	relative viability ([2]; first compound 0.001 µM)	relative viability ([2]; first compound 0.003162 µM)	relative viability ([2]; first compound 0.01 µM)	relative viability ([2]; first compound 0.03162 µM)	relative viability ([2]; first compound 0.1 µM)	relative viability (Cediranib + Vorinostat; first compound 0.04 µM)	relative viability (Cediranib + Vorinostat; first compound 0.1265 µM)	relative viability (Cediranib + Vorinostat; first compound 0.4 µM)	relative viability (Cediranib + Vorinostat; first compound 1.265 µM)	relative viability (Cediranib + Vorinostat; first compound 4 µM)
NCI-H1666	0.656	0.644	0.56	0.596	0.704	0.936	0.791	0.857	0.92	0.607	0.668	0.683	0.641	0.676	0.645	1.18	1.06	0.908	0.955	1.03
NCI-H1734	0.226	0.267	0.278	0.291	0.251	0.685	0.679	0.674	0.612	0.452	0.338	0.361	0.33	0.32	0.2	0.718	0.805	0.77	0.768	0.911
NCI-H1755	0.591	0.569	0.567	0.591	0.461	0.866	0.937	0.891	0.923	0.588	0.436	0.479	0.421	0.491	0.418	0.808	0.65	0.683	0.763	0.762
NCI-H1793	0.418	0.359	0.276	0.34	0.226	0.687	0.666	0.623	0.722	0.396	0.271	0.348	0.292	0.335	0.196	0.954	0.679	0.67	0.49	0.797
NCI-H1915	0.463	0.462	0.416	0.448	0.299	1.08	1.11	1.05	0.921	0.929	0.571	0.514	0.523	0.472	0.422	0.5	0.426	0.485	0.501	0.544
NCI-H1944	0.264	0.282	0.243	0.237	0.196	0.829	0.85	0.827	0.839	0.68	0.286	0.362	0.313	0.357	0.293	0.588	0.694	0.502	0.53	0.643
NCI-H1975	1.04	0.848	0.737	0.354	0.13	0.684	0.674	0.719	0.302	0.115	0.66	0.547	0.553	0.42	0.157	0.757	0.716	0.704	0.669	0.785
NCI-H1993	0.56	0.52	0.565	0.545	0.532	0.696	0.677	0.664	0.711	0.57	0.626	0.519	0.637	0.617	0.454	–	0.633	0.727	0.567	0.688
NCI-H2009	0.897	0.754	0.746	0.659	0.366	1.23	1.2	1.12	0.969	0.393	0.349	0.252	0.218	0.201	0.157	0.736	0.672	0.715	0.736	0.717
NCI-H2023	0.46	0.294	0.399	0.178	0.134	0.645	0.624	0.519	0.281	0.147	0.406	0.361	0.374	0.138	0.0623	0.739	0.4	0.545	0.723	0.9
NCI-H2085	0.959	0.877	0.729	0.847	0.716	0.901	0.98	0.943	0.873	0.623	0.521	0.461	0.458	0.461	0.487	0.832	0.721	0.746	0.832	0.769
NCI-H2087	0.28	0.322	0.251	0.23	0.114	1.12	0.98	1.14	0.935	0.612	0.254	0.22	0.189	0.22	0.2	0.939	0.694	0.474	0.671	0.63
NCI-H2126	0.918	0.845	0.859	0.793	0.62	0.71	0.74	0.696	0.734	0.698	0.362	0.344	0.347	0.346	0.354	0.738	0.578	0.725	0.614	0.81
NCI-H2170	0.731	0.678	0.812	0.679	0.728	0.863	0.846	0.799	0.681	0.656	0.382	0.392	0.358	0.401	0.373	0.88	–	0.793	0.718	0.962
NCI-H2228	0.321	0.324	0.19	0.133	0.0815	0.797	0.877	0.762	0.399	0.151	0.957	0.736	0.971	0.496	0.111	0.719	0.763	0.633	0.563	0.529
NCI-H2347	0.558	0.521	0.662	0.692	0.418	1.07	1.07	1.09	1.02	0.876	0.44	0.453	0.513	0.438	0.332	0.693	0.621	0.538	0.577	0.512
